Patent publication US6407058B1, “Modifying the permeability of physiological barriers” (Eisai Co., Limited, priority 1996, dated 2002)

Assays:
p100/p120 [1] = assay: p100/p120 electrophoretic mobility, primary pig brain endothelial cells (PBECs); type: cell-based; details: for mobility of p120 and p100: LPA 10 μM
Method: (§1) Cells were treated with or without 200 nM PDB for 30 minutes, lysed into Laemmli sample buffer, separated by electrophoresis and analysed by immunoblotting with antibodies recognising p100 and p120.
(§2) MDCK strain I and II cells were provided by Barry Gumbiner (memorial Sloan-Kettering Cancer Center, NY). LLC-PK1 and Caco-2 cells were obtained from the European Collection of Animal Cell Cultures. All cells were maintained at 37° C. under 5% CO2 in humidified air. MDCK strain I and II cells were maintained in MEM containing 10% FCS, 100 U/ml penicillin, 100 μg/ml streptomycin and 2 mM L-glutamine. Caco-2 cells were maintained in MEM containing 15% FCS, 1% non-essential amino acids and 1 μg/ml bovine insulin (Sigma I-6634). LLC-PK1 cells were grown in M199 (Gibco), 10% FCS, 100 U/ml penicillin, 100 μg/ml streptomycin and 2 mM L-glutamine. For whole cell lysate analysis, 10^5 cells were plated on 6.5 mm diameter, 0.4 μm, polycarbonate Transwell filters from Costar, in 0.25 ml of medium. The basolateral chamber contained 0.75 ml of medium. For immunoprecipitation, 5×10^5 cells were plated onto 24 mm Transwell filters, in 2 ml of medium, with 3 ml of medium in the lower chamber. Cells were used 4-7 days after plating. Tissue culture materials were from Gibco. Porcine brain endothelial cells were isolated and grown by modifications of a previously published procedure (Rubin et al., 1991). Brain capillary fragments were plated on dishes coated with rat tail collagen and human fibronectin. The cultures were fed every other day with growth medium composed of 50% astrocyte-conditioned medium and 50% Dulbecco's Modified Eagle Medium containing 10% plasma-derived serum, 125 μg/ml heparin, antibiotics and glutamine. They were incubated in a humidified atmosphere of 10% CO2 at 37° C. When the endothelial cells were approximately 50% confluent (after 4-6 days in culture), they were trypsinized and plated onto collagen-coated polycarbonate Transwell filters (6.5 mm diameter, 0.4 μm pore size, tissue culture treated, Costar Corp, Cambridge, Mass., U.S.A.) in the same medium (250 μl apically, 750 μl basolaterally). After 2-3 days on filters, the medium was switched to a 1:1 mixture of astrocyte-conditioned medium and a Dulbecco's Modified Eagle Medium-based, chemically defined medium (‘N2’, Rubin et al., 1991; Bottenstein and Sato, 1979). The final concentration of plasma-derived serum was 5%. Human umbilical vein endothelial cells were from Clonetics.
(§3) Whole cell lysates were prepared by rapidly replacing the culture medium in 6.5 mm with hot Laemmli sample buffer, followed by heating at 100° C. for 5 minutes. Immunoprecipitations were carried out at 4° C. Confluent monolayers of cells were washed rapidly with ice cold PBS (containing 0.9 mM CaCl2 and 0.5 mM MgCl2) before addition of 0.5 ml of the appropriate buffer. The filters were then gently scraped, and the lysate was removed and centrifuged at 14000× g. The supernatant was precleared with 10% (w/v) protein A-Sepharose in lysis buffer for 30-60 minutes. Appropriate primary antibodies were added to the lysate, and after 2-3 hours the immunecomplex was isolated, using rabbit anti-mouse secondary antibodies (Jackson Immunoresearch Labs Inc., West Grove, Pa.) and protein A-Sepharose.

p100/p120 [2] = assay: p100/p120 electrophoretic mobility, human umbilical vein endothelial cells (HUVECs); type: cell-based; details: HUVEC
[3] = test system: brain endothelial cells tight junction; details: pig brain endothelial cells (Schulze et al.); cited from earlier work
p100/p120 [4] = assay: p100/p120 electrophoretic mobility (band shift) by immunoblotting, MDCK I cells; type: cell-based
p100/p120 [5] = assay: p100/p120 electrophoretic mobility, human umbilical vein endothelial cells (HUVECs); type: cell-based; details: HUVEC; for mobility of p100 and p120, blocker alone: 10 μM blocker alone
Method: as §1
Human umbilical vein endothelial cells were incubated with histamine (His), pyrilamine (Pyr) or cimetidine (Cim) alone or in combination. As indicated, cells were preincubated in the absence or presence of cimetidine (10 μM) or pyrilamine (10 μM) for 10 minutes and then treated with or without histamine (10 μM) for a further 10 minutes. The cells were extracted and protein analysed by gel electrophoresis and immunoblotting. […] In the following examples, increase mobility of p100/p120 means decreased phosphorylation.
as §3, with “A-Sepharose. The beads were washed fives times with lysis buffer, and the bound protein was solubilized in SDS-sample buffer, followed by heating at 100° C. for 5 minutes.” for “A-Sepharose.”
Cell extracts or immunoprecipitates in SDS sample buffer were resolved by SDS-PAGE. The slab gels were then equilibrated in buffer comprising; 48 mM Tris, 39 mM glycine, 20% methanol and 0.03% SDS. Proteins were transferred to nitrocellulose filters (Hybond ECL; Amersham), which were Ponceau S stained and then blocked for 2 hours at 37° C. with 1% BSA in PBS containing 0.05% Tween-20. Filters were then probed with p120 antibody, at a dilution of 1:2500. After washing, filters were incubated with horseradish peroxidase conjugated anti-mouse antibody (Amersham), at a dilution of 1:5000. The filters were then extensively washed in PBS/0.5% Tween-20, and immunoreactive bands were detected by enhanced chemiluminescence (Amersham) following the manufacturers instructions.

[6] = test system: pig brain endothelial cell tight junctions; assay: transcellular electrical resistance (TER) of pig brain endothelial cell cultures; type: cell-based
Method: After 2 minutes the Transwells were returned to control medium and transcellular electrical resistance measurements were taken every minute for the following 18 minutes.
as §2
Transcellular electrical resistance (TER) measurements were taken with a pair of fixed, current-passing, voltage measuring electrodes (World Precision Instruments, Stevenage, Hertfordshire, U.K.). TER values are expressed in Ωcm^2 and were corrected for the resistance of cell-free filters.

p100/p120 [7] = assay: p100/p120 electrophoretic mobility (band shift) by immunoblotting, MDCK I cells; type: cell-based; details: MDCK I; for reversal of PDB-induced p100/p120 band shift: 200 nM PDB 30 minutes, then 2.5 μM inhibitor added in presence of PDB; for block of PDB-induced p100/p120 band shift: pretreatment 5 minutes (bisindolylmaleimide I or V 2.5 μM, Ro 31-8425 5 μM), then 200 nM PDB 30 minutes
Method: The migration of the cellular proteins p100 and p120 during electrophoresis is increased following PDB-treatment of MDCK I cells. PDB (phorbol-12,13-dibutyrate) is a pharmacological activator of protein kinase C. MDCK I cells are a kidney derived epithelial cell line, with particularly well developed junctional complexes. Cells treated for 30 minutes with either 200 nM PDB (+) or vehicle (−) were then lysed into Laemmli sample buffer, and separated by electrophoresis using 6% acrylamide gels. Proteins were transferred to nitrocellulose and probed with antibodies to p100/p120, and then reprobed with E-cadherin and paxillin antibodies.
as §2
as §3, with “A-Sepharose. The beads were washed fives times with lysis buffer, and the bound protein was solubilized in SDS-sample buffer, followed by heating at 100° C. for 5 minutes.” for “A-Sepharose.”
Cell extracts or immunoprecipitates in SDS sample buffer were resolved by SDS-PAGE. […]

[8] = test system: brain endothelial cells tight junction; assay: tight junction permeability in pig brain endothelial cells; type: cell-based; details: results not shown
[9] = 15 minutes, histamine 10 μM, LPA 10 μM, ATP 100 μM

lysophosphatidic acid [LPA]
mobility of p120 and p100 (p100/p120 [1]; pig brain endothelial cells, 30 minutes): increased mobility | mobility of p120 and p100 (p100/p120 [1]; pig brain endothelial cells, 70 minutes): increased mobility | onset of LPA effect on p100/p120 (p100/p120 [1]; pig brain endothelial cells, further experiments): within a few minutes | mobility of p100 and p120 (p100/p120 [2]; [9]): increase in the mobility | tight junction permeability [3]: increases tight junction permeability

CCCOc1ccc2c(c1)c1c3c(c4c5ccccc5n5c4c1n2[C@H]1C[C@](O)(C(=O)OC)[C@]5(C)O1)CNC3=O [KT 5926]
effect on p100/p120 mobility (p100/p120 [4]; 1 μM KT 5926): also induced a p100/p120 band shift

Nc1ncnc2c1ncn2[C@@H]1O[C@H](COP(=O)(O)OP(=O)(O)OP(=O)(O)O)[C@@H](O)[C@H]1O [ATP]
mobility of p100 and p120 (p100/p120 [2]; [9]): increase in the mobility

CN/C(=N/CCSCc1nc[nH]c1C)NC#N [cimetidine]
mobility of p100 and p120, blocker alone (p100/p120 [5]): no effect

OC[C@@H](O)[C@@H](O)[C@H](O)[C@H](O)CO [mannitol]
transcellular electrical resistance ([6]; 0.2-0.4 M mannitol, up to 6 hours): causes a drop | reversibility of drop in transcellular electrical resistance ([6]; 0.4M or 0.8M mannitol 2 minutes, then control medium 18 minutes): fully reversible | time at which drop in transcellular electrical resistance is clearly seen ([6]; 0.8M mannitol, recorded over 2 minutes): ≤ 20 s

CN1C(=O)C(c2c[nH]c3ccccc23)=C(c2c[nH]c3ccccc23)C1=O [bisindolylmaleimide V]
reversal of PDB-induced p100/p120 band shift (p100/p120 [7]): did not reverse | block of PDB-induced p100/p120 band shift (p100/p120 [7]): unable to block

CCCC(=O)O[C@@H]1[C@@H](C)[C@@]2(O)[C@@H](C=C(CO)C[C@@]3(O)C(=O)C(C)=C[C@@H]23)[C@@H]2C(C)(C)[C@]12OC(=O)CCC [4α-PDB]
effect on p100/p120 mobility (p100/p120 [7]; 200 nM 4α-PDB, 30 minutes): no effect

OC[C@@H](O)[C@@H](O)[C@H](O)[C@@H](O)CO [sorbitol]
transcellular electrical resistance after treatment ([6]; 0.3M sorbitol, 10 minutes, from 677 before treatment): 73 Ωcm^2

COC[C@@H]([C@H](O)[C@H](O)C(=O)NCC[C@H](C)c1nc(/C=C/C[C@@H]2O[C@]3(C[C@@H](O)[C@@H]2C)O[C@H]([C@H](C[C@H](O)[C@H](C)[C@H](O)[C@H](C)/C=C(C)/C(C)=C/C=C/C(C)=C\C#N)OC)[C@H](OP(=O)(O)O)C3(C)C)co1)N(C)C [calyculin A]
effect on p100/p120 mobility (p100/p120 [4]; 100 nM calyculin A, 60 minutes): upward band shift

C=C1[C@@H](O)[C@@H]2O[C@]3(CC[C@H](/C=C/[C@@H](C)[C@@H]4CC(C)=C[C@@]5(O[C@H](C[C@@](C)(O)C(=O)O)CC[C@H]5O)O4)O3)CC[C@H]2O[C@@H]1[C@@H](O)C[C@H](C)[C@H]1O[C@@]2(CCCCO2)CC[C@H]1C [okadaic acid]
effect on p100/p120 mobility (p100/p120 [4]; 1 μM okadaic acid, 60 minutes): upward band shift

CN(C)CCCn1cc(C2=C(c3c[nH]c4ccccc34)C(=O)NC2=O)c2ccccc21 [bisindolylmaleimide I]
block of LPA-induced increase in tight junction permeability [8]: did not block | prevention of sorbitol-induced increase in p100/p120 mobility (p100/p120 [1]; 2.5 μM bisindolylmaleimide 5 minutes pretreatment, then 0.3M sorbitol): not prevented | block of LPA-induced p100/p120 mobility increase (p100/p120 [1]; bisindolylmaleimide 2.5 μM preincubation 10 minutes, then LPA 10 μM 70 minutes): not blocked | block of phorbol dibutyrate effect on p100/p120 mobility (p100/p120 [2]; bisindolylmaleimide 2 μM preincubation 15 minutes, then PDB 200 nM 5 minutes): blocked | block of histamine effect on p100/p120 mobility (p100/p120 [2]; bisindolylmaleimide 2 μM preincubation 15 minutes, then histamine 10 μM 5 minutes): not so strongly affected | transcellular electrical resistance after sorbitol following bisindolylmaleimide pre-incubation ([6]; 2.5 μM bisindolylmaleimide pre-incubation, then 0.3M sorbitol 10 minutes, from 643 before treatment): 93 Ωcm^2 | reversal of PDB-induced p100/p120 band shift (p100/p120 [7]): can be reversed | block of PDB-induced p100/p120 band shift (p100/p120 [7]): completely abolished

COc1ccc(CN(CCN(C)C)c2ccccn2)cc1 [pyrilamine]
mobility of p100 and p120, blocker alone (p100/p120 [5]): no effect | block of histamine effect on p100/p120 mobility (p100/p120 [5]; 10 μM preincubation 10 minutes, then histamine 10 μM 10 minutes): blocked the histamine effect

CCCCCCCC(=O)OCC(CO)OC(=O)CCCCCCC (stereo not shown) [DiC8, 1,2-dioctanoylglycerol]
effect on p100/p120 mobility (p100/p120 [4]; 0.5 mM DiC8, 10 minutes): induces a p100/p120 mobility shift

Cn1cc(C2=C(c3c4n(c5ccccc35)CCC(CN)C4)C(=O)NC2=O)c2ccccc21 (stereo not shown) [Ro 31-8425]
block of PDB-induced p100/p120 band shift (p100/p120 [7]): completely abolished

CN[C@@H]1C[C@H]2O[C@@](C)([C@@H]1OC)n1c3ccccc3c3c4c(c5c6ccccc6n2c5c31)C(=O)NC4 [staurosporine]
effect on p100/p120 mobility (p100/p120 [4]; 100 nM staurosporine, 60 minutes): induced a p100/p120 band shift

NCCc1c[nH]cn1 [histamine]
mobility of p120 and p100 (p100/p120 [2]; 5 minutes, histamine 10 μM, PDB 200 nM): increased mobility | mobility of p100 and p120 (p100/p120 [2]; [9]): increase in the mobility | mobility of p100 and p120 (p100/p120 [2]; histamine 10 μM, 10 minutes): induced an increased mobility | mobility of p100 and p120, time course (p100/p120 [2]; histamine, times indicated (FIG. 11)): rapid increase in the mobility
